# Experimental data from US20250340574A1, “MODULATORS OF CYSTIC FIBROSIS TRANSMEMBRANE CONDUCTANCE REGULATOR” (Vertex Pharmaceuticals Incorporated, priority 2022, published 2025).
# Tests used:
# [1] = target: T1, CFTR (F508del/MF-HBE cells) (Homo sapiens, UniProt P13569, DEL508-508); experiment: Ussing chamber assay of CFTR-mediated short-circuit currents, Assay D (single concentration of 1 μM); type: cell-based; details: with 44 nM potentiator and 18 μM Tezacaftor, 18-24 hours, 20% human serum
# T1 construct: human bronchial epithelial (HBE) cells derived from CF subjects heterozygous for F508del and a minimal function CFTR mutation (F508del/MF-HBE); endogenous in cells; host or cells: Primary human bronchial epithelial cells from CF subjects (F508del/MF genotype), differentiated at an air-liquid interface
# T1 sequence (P13569 with tags, fused parts or gaps DEL508-508): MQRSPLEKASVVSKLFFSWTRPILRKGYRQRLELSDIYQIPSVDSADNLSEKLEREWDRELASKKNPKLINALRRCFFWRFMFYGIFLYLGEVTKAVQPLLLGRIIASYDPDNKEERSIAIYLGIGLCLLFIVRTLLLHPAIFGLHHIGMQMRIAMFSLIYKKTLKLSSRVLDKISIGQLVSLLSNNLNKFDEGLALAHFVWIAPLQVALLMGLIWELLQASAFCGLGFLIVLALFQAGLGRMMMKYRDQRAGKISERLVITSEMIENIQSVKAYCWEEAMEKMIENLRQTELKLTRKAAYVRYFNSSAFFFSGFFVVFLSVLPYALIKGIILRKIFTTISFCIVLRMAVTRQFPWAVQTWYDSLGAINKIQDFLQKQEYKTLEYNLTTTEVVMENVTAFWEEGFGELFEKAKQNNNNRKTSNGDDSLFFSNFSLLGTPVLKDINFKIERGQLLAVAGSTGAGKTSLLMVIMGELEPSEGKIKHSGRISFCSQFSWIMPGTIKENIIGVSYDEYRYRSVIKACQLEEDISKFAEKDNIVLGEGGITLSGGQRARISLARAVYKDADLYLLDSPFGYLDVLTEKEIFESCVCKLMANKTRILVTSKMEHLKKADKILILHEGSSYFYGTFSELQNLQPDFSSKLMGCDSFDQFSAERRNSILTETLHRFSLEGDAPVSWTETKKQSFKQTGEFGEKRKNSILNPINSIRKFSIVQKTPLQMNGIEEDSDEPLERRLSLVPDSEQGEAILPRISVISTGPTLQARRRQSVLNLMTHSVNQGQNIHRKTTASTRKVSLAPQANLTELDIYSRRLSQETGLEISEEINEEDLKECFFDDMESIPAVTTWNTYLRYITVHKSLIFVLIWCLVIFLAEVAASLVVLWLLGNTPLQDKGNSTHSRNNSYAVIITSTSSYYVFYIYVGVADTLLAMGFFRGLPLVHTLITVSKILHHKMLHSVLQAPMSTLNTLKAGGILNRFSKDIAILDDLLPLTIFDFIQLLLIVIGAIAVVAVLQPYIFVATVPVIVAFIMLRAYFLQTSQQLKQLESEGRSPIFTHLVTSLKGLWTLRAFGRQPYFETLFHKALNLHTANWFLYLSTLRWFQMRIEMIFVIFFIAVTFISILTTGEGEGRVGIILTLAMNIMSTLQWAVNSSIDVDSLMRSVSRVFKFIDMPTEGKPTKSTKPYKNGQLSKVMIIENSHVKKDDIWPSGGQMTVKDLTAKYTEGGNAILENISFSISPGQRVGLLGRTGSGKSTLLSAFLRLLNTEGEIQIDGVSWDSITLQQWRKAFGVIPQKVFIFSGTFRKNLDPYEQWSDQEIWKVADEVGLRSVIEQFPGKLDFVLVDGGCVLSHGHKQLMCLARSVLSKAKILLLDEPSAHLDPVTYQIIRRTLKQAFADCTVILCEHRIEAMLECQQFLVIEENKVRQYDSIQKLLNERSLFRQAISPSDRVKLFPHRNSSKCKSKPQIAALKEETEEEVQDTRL
# Experimental: (§1) Ussing chamber experiments were performed using human bronchial epithelial (HBE) cells derived from CF subjects heterozygous for F508del and a minimal function CFTR mutation (F508del/MF-HBE) and cultured as previously described (Neuberger T, Burton B, Clark H, Van Goor F Methods Mol Biol 2011:741:39-54). After four days the apical media was removed, and the cells were grown at an air liquid interface for >14 days prior to use.
# (§2) To isolate the CFTR-mediated short-circuit (ISC) current, F508del/MF-HBE grown on Costar® Snapwell™ cell culture inserts were mounted in an Ussing chamber and the transepithelial ISC was measured under voltage-clamp recording conditions (Vhold=0 mV) at 37° C. The basolateral solution contained (in mM) 145 NaCl, 0.83 K2HPO4, 3.3 KH2PO4, 1.2 MgCl2, 1.2 CaCl2, 10 Glucose, 10 HEPES (pH adjusted to 7.4 with NaOH) and the apical solution contained (in mM) 145 NaGluconate, 1.2 MgCl2, 1.2 CaCl2, 10 glucose, 10 HEPES (pH adjusted to 7.4 with NaOH) and 30 μM amiloride to block the epithelial sodium channel. Forskolin (20 μM) was added to the apical surface to activate CFTR, followed by apical addition of a CFTR inhibitor cocktail consisting of BPO, GlyH-101, and CFTR inhibitor 172 (each at 20 μM final assay concentration) to specifically isolate CFTR currents. The CFTR-mediated ISC (μA/cm^2) for each condition was determined from the peak forskolin response to the steady-state current following inhibition.
# (§3) The activity of the CFTR corrector compounds on the CFTR-mediated ISC was determined in Ussing chamber studies as described above. The F508del/MF-HBE cell cultures were either incubated with the corrector compounds at a range of concentrations in combination with 33 nM (6R,12R)-17-amino-12-methyl-6,15-bis(trifluoromethyl)-13,19-dioxa-3,4,18-triazatricyclo[12.3.1.12,5]nonadeca-1(18),2,4,14,16-pentaen-6-ol and 18 μM Tezacaftor or were incubated with the corrector compounds at a single fixed concentration of 1 μM in combination with 44 nM (6R,12R)-17-amino-12-methyl-6,15-bis(trifluoromethyl)-13,19-dioxa-3,4,18-triazatricyclo[12.3.1.12,5]nonadeca-1(18),2,4,14,16-pentaen-6-ol and 18 μM Tezacaftor for 18-24 hours at 37° C. and in the presence of 20% human serum. The concentration of corrector compounds with 44 nM or 33 nM (6R,12R)-17-amino-12-methyl-6,15-bis(trifluoromethyl)-13,19-dioxa-3,4,18-triazatricyclo[12.3.1.12,5]nonadeca-1(18),2,4,14,16-pentaen-6-ol and 18 μM Tezacaftor during the 18-24 hours incubations was kept constant throughout the Ussing chamber measurement of the CFTR-mediated ISC to ensure compounds were present throughout the entire experiment. The efficacy and potency of the putative F508del correctors was compared to that of the known Vertex corrector, (14S)-8-[3-(2-{Dispiro[2.0.2.1]heptan-7-yl}ethoxy)-1H-pyrazol-1-yl]-12,12-dimethyl-2λ^6-thia-3,9,11,18,23-pentaazatetracyclo[17.3.1.111,14.05,10]tetracosa-1(22),5,7,9,19(23),20-hexaene-2,2,4-trione, in combination with 18 μM Tezacaftor and 1 μM Ivacaftor.
# (§4) • Assay A: 0.1 μM to 25 μM, 6 concentrations • Assay B: 0.00001 μM to 25 μM, 12 concentrations • Assay C: 0.026 μM to 25 μM, 6 concentrations • Assay D: Activity at single concentration of 1 μM
# [2] = target: T1, CFTR (F508del/MF-HBE cells); experiment: Ussing chamber assay of CFTR-mediated short-circuit currents, Assay C (0.026 μM to 25 μM, 6 concentrations); type: cell-based; details: with 33 nM potentiator and 18 μM Tezacaftor, 20% human serum; for Emax: read-out: C Max activity (%)
# Experimental: as §1, §2, §3, §4
smiles,measurement,setting,value
"Cc1cccc(C(C)C)c1-c1nc2nc(c1C)OC[C@@H](CC(C)(C)C)N(Cc1cnc3oc(C(C)C)cc3n1)C(=O)c1cccc(c1)S(=O)(=O)N2 (atropisomer, axis not shown) [Compound I-135]",D activity at 1 μM (%),[1],+++ (+++ is >60%)
"Cc1cccc(C(C)C)c1-c1nc2nc(c1C)OC[C@@H](CC(C)(C)C)N(Cc1cnc3oc(C(C)C)cc3n1)C(=O)c1cccc(c1)S(=O)(=O)N2 (atropisomer, axis not shown) [Compound I-136]",D activity at 1 μM (%),[1],+++ (+++ is >60%)
"Cc1cccc(C(C)C)c1-c1nc2nc(c1C)OC[C@@H](CC(C)(C)C)N(Cc1cnc3cc(C(C)C)n(C)c3n1)C(=O)c1cccc(c1)S(=O)(=O)N2 (atropisomer, axis not shown) [Compound I-180]",D activity at 1 μM (%),[1],+++ (+++ is >60%)
"Cc1cccc(CCC(C)C)c1-c1nc2nc(c1C)OC[C@@H](CC(C)(C)C)N(Cc1cnc3oc(C4CC4)cc3n1)C(=O)c1cccc(c1)S(=O)(=O)N2 (atropisomer, axis not shown) [Compound I-205]",D activity at 1 μM (%),[1],+++ (+++ is >60%)
"Cc1cccc(CC(C)C)c1-c1nc2nc(c1C)OC[C@@H](CC(C)(C)C)N(Cc1cnc3oc(C(C)(C)C)cc3n1)C(=O)c1cccc(c1)S(=O)(=O)N2 (atropisomer, axis not shown) [Compound I-238]",D activity at 1 μM (%),[1],+++ (+++ is >60%)
"Cc1cccc(OC(C)C)c1-c1nc2nc(c1C)OC[C@@H](CC(C)(C)C)N(Cc1cnc3cc(C(C)(C)C)n(C)c3n1)C(=O)c1cccc(c1)S(=O)(=O)N2 (atropisomer, axis not shown) [Compound I-261]",D activity at 1 μM (%),[1],+++ (+++ is >60%)
"Cc1cccc(C)c1-c1cc2nc(n1)NS(=O)(=O)c1cccc(c1)C(=O)N(Cc1cnc3oc(C(C)C)cc3n1)[C@H](CC1CCCO1)CO2 (single isomer, unassigned) [Compound I-22]",D activity at 1 μM (%),[1],+++ (+++ is >60%)
"Cc1cccc(C)c1-c1cc2nc(n1)NS(=N)(=O)c1cccc(c1)C(=O)N(Cc1cnc3oc(C4CC4)cc3n1)[C@H](CC(C)(C)C)CO2 (single isomer, unassigned) [Compound I-147]",D activity at 1 μM (%),[1],+++ (+++ is >60%)
"Cc1cccc(C)c1-c1cc2nc(n1)NS(=O)(=O)c1cccc(c1)C(=O)N(Cc1cnc3oc(C4CC4)cc3n1)[C@@H](CC1CC(C)(C)C1)CO2 (single isomer, unassigned) [Compound I-165, 12-[(6-Cyclopropylfuro[2,3-b]pyrazin-2-yl)methyl]-11-[(3,3-dimethylcyclobutyl)methyl]-6-(2,6-dimethylphenyl)-2,2-dioxo-9-oxa-2λ^6-thia-3,5,12,19-tetrazatricyclo[12.3.1.14,8]nonadeca-1(18),4(19),5,7,14,16-hexaen-13-one]",D activity at 1 μM (%),[1],+++ (+++ is >60%)
Cc1cccc(C)c1-c1cc2nc(n1)NS(=O)(=O)c1cccc(c1)C(=O)N(Cc1cnc3cc(C4(C(F)(F)F)CC4)n(C)c3n1)[C@H](CC1(C)CC1)CO2 [IV-75],EC50,[2],1000 to 3000 nM
same,Emax,[2],30 to 60%
"COCCc1c(C(C)(C)C)n(C)c2nc(CN3C(=O)c4cccc(c4)S(=O)(=O)Nc4nc(cc(-c5c(C)cccc5C)n4)OC[C@H]3CC34CC(C3)C4)cnc12 [IV-82, (11R)-11-(1-bicyclo[1.1.1]pentanylmethyl)-12-[[6-tert-butyl-7-(2-methoxyethyl)-5-methyl-pyrrolo[2,3-b]pyrazin-3-yl]methyl]-6-(2,6-dimethylphenyl)-2,2-dioxo-9-oxa-2λ^6-thia-3,5,12,19-tetrazatricyclo[12.3.1.14,8]nonadeca-1(18),4(19),5,7,14,16-hexaen-13-one]",EC50,[2],< 1000 nM
same,Emax,[2],> 60%
Cc1cccc(C)c1-c1cc2nc(n1)NS(=O)(=O)c1cccc(c1)C(=O)N(Cc1cnc3oc(C(C)(C)C)cc3n1)[C@H](C[C@@H]1CCCO1)CO2 [IV-83],EC50,[2],1000 to 3000 nM
same,Emax,[2],> 60%
Cc1cccc(C)c1-c1cc2nc(n1)NS(=O)(=O)c1cccc(c1)C(=O)N(Cc1cnc3oc(C4(C)CC4)cc3n1)[C@H](C[C@@H]1CCCO1)CO2 [IV-84],EC50,[2],1000 to 3000 nM
same,Emax,[2],> 60%
Cc1cccc(C)c1-c1cc2nc(n1)NS(=O)(=O)c1cccc(c1)C(=O)N(Cc1cnc3oc(C(C)(C)C)cc3n1)[C@H](C[C@@H]1CCCCO1)CO2 [IV-85],EC50,[2],1000 to 3000 nM
same,Emax,[2],> 60%
Cc1cccc(C)c1-c1cc2nc(n1)NS(=O)(=O)c1cccc(c1)C(=O)N(Cc1cnc3oc(C4CC4)cc3n1)[C@H](C[C@@H]1CCCCO1)CO2 [IV-86],EC50,[2],3000 to 30000 nM
same,Emax,[2],> 60%
Cc1cccc(C)c1-c1cc2nc(n1)NS(=O)(=O)c1cccc(c1)C(=O)N(Cc1cnc3oc(C4(C)CC4)cc3n1)[C@H](C[C@@H]1CCCCO1)CO2 [IV-87],EC50,[2],3000 to 30000 nM
same,Emax,[2],> 60%
Cc1cccc(C)c1-c1cc2nc(n1)NS(=O)(=O)c1cccc(c1)C(=O)N(Cc1cnc3oc(C4(C)CC4)cc3n1)[C@H](C[C@H]1CCCCO1)CO2 [IV-88],EC50,[2],3000 to 30000 nM
same,Emax,[2],> 60%
"COCc1c(C(C)(C)C)n(C)c2nc(CN3C(=O)c4cccc(c4)S(=O)(=O)Nc4nc(cc(-c5c(C)cccc5C)n4)OC[C@H]3CC34CC(C3)C4)cnc12 [IV-89, (11R)-11-(1-bicyclo[1.1.1]pentanylmethyl)-12-[[6-tert-butyl-7-(methoxymethyl)-5-methyl-pyrrolo[2,3-b]pyrazin-3-yl]methyl]-6-(2,6-dimethylphenyl)-2,2-dioxo-9-oxa-2λ^6-thia-3,5,12,19-tetrazatricyclo[12.3.1.14,8]nonadeca-1(18),4(19),5,7,14,16-hexaen-13-one]",EC50,[2],< 1000 nM
same,Emax,[2],> 60%
CCc1cccc(CC)c1-c1nc2nc(c1C)OC[C@@H](CC(C)(C)C)N(Cc1cnc3cc(C4(C)CC4)n(C)c3n1)C(=O)c1cccc(c1)S(=O)(=O)N2 [IV-90],EC50,[2],1000 to 3000 nM
same,Emax,[2],> 60%
CCc1cccc(CC)c1-c1nc2nc(c1C)OC[C@@H](CC(C)(C)C)N(Cc1cnc3cc(C(C)(C)C)n(C)c3n1)C(=O)c1cccc(c1)S(=O)(=O)N2 [IV-91],EC50,[2],< 1000 nM
same,Emax,[2],> 60%
Cc1cccc(C)c1-c1cc2nc(n1)NS(=O)(=O)c1cccc(c1)C(=O)N(Cc1cnc3cc(C(C)(C)C(F)(F)F)n(C)c3n1)[C@H](COC(C)C)CO2 [IV-99],EC50,[2],1000 to 3000 nM
same,Emax,[2],> 60%
Cc1cccc(CC(C)C)c1-c1nc2nc(c1C)OC[C@@H](COC(C)C)N(Cc1cnc3cc(C(C)(C)C(F)(F)F)n(C)c3n1)C(=O)c1cccc(c1)S(=O)(=O)N2 [IV-101],EC50,[2],< 1000 nM
same,Emax,[2],> 60%
Cc1cccc(C)c1-c1cc2nc(n1)NS(=O)(=O)c1cccc(c1)C(=O)N(Cc1cnc3cc(C4(C(F)(F)F)CC4)n(C)c3n1)[C@H](C[C@@H]1CCCO1)CO2 [IV-103],EC50,[2],1000 to 3000 nM
same,Emax,[2],> 60%
COc1c2nc(nc1-c1c(C)cccc1C)NS(=O)(=O)c1cccc(c1)C(=O)N(Cc1cnc3cc(C4(C(F)(F)F)CC4)n(C)c3n1)[C@H](COC(C)C)CO2 [IV-104],EC50,[2],1000 to 3000 nM
same,Emax,[2],> 60%
Cc1cccc(C)c1-c1nc2nc(c1C)OC[C@@H](C[C@@H]1CCCO1)N(Cc1cnc3cc(C4(C(F)(F)F)CC4)n(C)c3n1)C(=O)c1cccc(c1)S(=O)(=O)N2 [IV-105],EC50,[2],< 1000 nM
same,Emax,[2],> 60%
Cc1cccc(C)c1-c1nc2nc(c1C)OC[C@@H](C[C@H]1CCCO1)N(Cc1cnc3cc(C4(C(F)(F)F)CC4)n(C)c3n1)C(=O)c1cccc(c1)S(=O)(=O)N2 [IV-106],EC50,[2],< 1000 nM
same,Emax,[2],> 60%
